In patent publication US20240327407A1, “NOVEL INHIBITORS OF AUTOTAXIN” (CADILA HEAL THCARE LIMITED, priority 2021, published 2024):

target: ATX (Mus musculus (Mouse), UniProt Q9R1E6); test: Mice serum ATX inhibitory activity (IC50 determination); format: biochemical
Method: ATX Inhibitory activity was determined in a biochemical or whole blood assay as described previously (Bretschneider, T. et al., SLAS Discov 2017, 22, 425). The biochemical reaction consisted of 50 mM Tris (pH 8.0), 3 mM KCl, 1 mM CaCl2, 1 mM Mg Cl2, […] NaCl and 0.1% bovine serum albumin, which was supplemented with 5 nM recombinant rat ATX, 5 μM 18:1 LPC and the test compound (0.1-10 μM). The reaction was stopped at 2 h by the addition of butanol, prior to the RapidFire-MS-based analysis.
The whole blood assay consisted of 45 μL μL heparinized mice/rat whole blood and the test compound (0.12-100 μM). The reaction was stopped after 1 h at 37° C. by addition of 100 μL 40 mM disodium hydrogen phosphate buffer containing 30 mM citric acid (pH 4) and 1 μM 17:0 LPA (internal standard). Afterwards the samples were treated a described above and analysed by LC-MS/MS. The data was analyzed using graph pad prism (v 7.03) to arrive at the half-maximal inhibitory concentrations (IC50) of the test compounds.

| Structure (SMILES) | IC50 [nM] |
| --- | --- |
| CC(C)[C@@H](NC(=O)c1cc(C(F)(F)F)ccc1F)C(=O)N1CCC2(CC1)C(=O)N(C)C(=O)C2c1ccccc1 (stereo partly drawn) [Compound 1, 2-fluoro-N-((2R)-3-methyl-1-(2-methyl-1,3-dioxo-4-phenyl-2,8-diazaspiro[4.5]decan-8-yl)-1-oxobutan-2-yl)-5-(trifluoromethyl)benzamide] | 91 |
| CC(C)[C@@H](NC(=O)c1cc(C(F)(F)F)ccc1F)C(=O)N1CCC2(CC1)C(=O)N(CCN)C(=O)C2c1ccccc1 (stereo partly drawn) [Compound 33, N-((2R)-1-(2-(2-aminoethyl)-1,3-dioxo-4-phenyl-2,8-diazaspiro[4.5]decan-8-yl)-3-methyl-1-oxobutan-2-yl)-2-fluoro-5-(trifluoromethyl)benzamide] | 69.8 |
| CC(C)[C@@H](NC(=O)c1cc(C(F)(F)F)ccc1F)C(=O)N1CCC2(CC1)C(=O)N(C)CC2c1ccccc1 (stereo partly drawn) [Compound 44, 2-fluoro-N-((2R)-3-methyl-1-(2-methyl-1-oxo-4-phenyl-2,8-diazaspiro[4.5]decan-8-yl)-1-oxobutan-2-yl)-5-(trifluoromethyl)benzamide] | 4 |
| CC(C)[C@@H](NC(=O)c1cc(C(F)(F)F)ccc1F)C(=O)N1CCC2(CC1)C(=O)NCC2c1ccccc1 (stereo partly drawn) [Compound 45, 2-fluoro-N-((2R)-3-methyl-1-oxo-1-(1-oxo-4-phenyl-2,8-diazaspiro[4.5]decan-8-yl)butan-2-yl)-5-(trifluoromethyl)benzamide] | 19.2 |
| CC(C)[C@@H](NC(=O)c1cc(C(F)(F)F)ccc1F)C(=O)N1CCC2(CC1)C(=O)N(C)CC2c1cccnc1 (stereo partly drawn) [Compound 56, 2-fluoro-N-((2R)-3-methyl-1-(2-methyl-1-oxo-4-(pyridin-3-yl)-2,8-diazaspiro[4.5]decan-8-yl)-1-oxobutan-2-yl)-5-(trifluoromethyl)benzamide] | 13.3 |
| CC(C)[C@@H](NC(=O)c1cc(C(F)(F)F)ccc1F)C(=O)N1CCC2(CC1)C(=O)NCC2c1cccnc1 (stereo partly drawn) [Compound 57, 2-fluoro-N-((2R)-3-methyl-1-oxo-1-(1-oxo-4-(pyridin-3-yl)-2,8-diazaspiro[4.5]decan-8-yl)butan-2-yl)-5-(trifluoromethyl)benzamide] | 56.2 |
| CC(C)[C@@H](NC(=O)c1cc(C(F)(F)F)ccc1F)C(=O)N1CCC2(CC1)C(=O)N(C)CC2c1ccc2[nH]ncc2c1 (stereo partly drawn) [Compound 58, N-((2R)-1-(4-(1H-indazol-5-yl)-2-methyl-1-oxo-2,8-diazaspiro[4.5]decan-8-yl)-3-methyl-1-oxobutan-2-yl)-2-fluoro-5-(trifluoromethyl)benzamide] | 58.9 |
| CC(C)[C@@H](NC(=O)c1cc(C(F)(F)F)ccc1F)C(=O)N1CCC2(CC1)CN(C)CC2c1ccccc1 (stereo partly drawn) [Compound 62, 2-fluoro-N-((2R)-3-methyl-1-(2-methyl-4-phenyl-2,8-diazaspiro[4.5]decan-8-yl)-1-oxobutan-2-yl)-5-(trifluoromethyl)benzamide] | 6.6 |
| CC(C)[C@@H](NC(=O)c1cc(C(F)(F)F)ccc1F)C(=O)N1CCC2(CC1)CN(C)CC2c1cccnc1 (stereo partly drawn) [Compound 64, 2-fluoro-N-((2R)-3-methyl-1-(2-methyl-4-(pyridin-3-yl)-2,8-diazaspiro[4.5]decan-8-yl)-1-oxobutan-2-yl)-5-(trifluoromethyl)benzamide] | 13.4 |
| CC(C)[C@@H](NC(=O)c1cc(C(F)(F)F)ccc1F)C(=O)N1CCC2(CC1)CN(C)CC2c1ccc2[nH]ncc2c1 (stereo partly drawn) [Compound 65, N-((2R)-1-(4-(1H-indazol-5-yl)-2-methyl-2,8-diazaspiro[4.5]decan-8-yl)-3-methyl-1-oxobutan-2-yl)-2-fluoro-5-(trifluoromethyl)benzamide] | 6.9 |
| CC(C)[C@@H](NC(=O)c1cc(C(F)(F)F)ccc1F)C(=O)N1CCC2(CC1)C(=O)NCC2c1ccc(F)cc1 (stereo partly drawn) [Compound 102, 2-fluoro-N-((2R)-1-(4-(4-fluorophenyl)-1-oxo-2,8-diazaspiro[4.5]decan-8-yl)-3-methyl-1-oxobutan-2-yl)-5-(trifluoromethyl)benzamide] | 22.6 |
| CC(C)[C@@H](NC(=O)c1cc(C(F)(F)F)ccc1F)C(=O)N1CCC2(CC1)C(=O)N(C)CC2c1ccc(F)cc1 (stereo partly drawn) [Compound 103, 2-fluoro-N-((2R)-1-(4-(4-fluorophenyl)-2-methyl-1-oxo-2,8-diazaspiro[4.5]decan-8-yl)-3-methyl-1-oxobutan-2-yl)-5-(trifluoromethyl)benzamide] | 6.9 |
| CCN1CC(c2ccc(F)cc2)C2(CCN(C(=O)[C@H](NC(=O)c3cc(C(F)(F)F)ccc3F)C(C)C)CC2)C1=O (stereo partly drawn) [Compound 104, N-((2R)-1-(2-ethyl-4-(4-fluorophenyl)-1-oxo-2,8-diazaspiro[4.5]decan-8-yl)-3-methyl-1-oxobutan-2-yl)-2-fluoro-5-(trifluoromethyl)benzamide] | 11.7 |
| COc1ccc(F)c(C(=O)N[C@@H](C(=O)N2CCC3(CC2)C(=O)N(C)CC3c2ccccc2)C(C)C)c1 (stereo partly drawn) [Compound 105, 2-fluoro-5-methoxy-N-((2R)-3-methyl-1-(2-methyl-1-oxo-4-phenyl-2,8-diazaspiro[4.5]decan-8-yl)-1-oxobutan-2-yl)benzamide] | 25.6 |
| CC(C)[C@@H](NC(=O)c1cc(C(F)(F)F)ccc1F)C(=O)N1CCC2(CC1)C(=O)N(C)C=C2c1ccccc1 [Compound 106, (R)-2-fluoro-N-(3-methyl-1-(2-methyl-1-oxo-4-phenyl-2,8-diazaspiro[4.5]dec-3-en-8-yl)-1-oxobutan-2-yl)-5-(trifluoromethyl)benzamide] | 55.6 |
| CC(C)[C@@H](NC(=O)c1ccccc1F)C(=O)N1CCC2(CC1)C(=O)N(C)CC2c1ccccc1 (stereo partly drawn) [Compound 107, 2-fluoro-N-((2R)-3-methyl-1-(2-methyl-1-oxo-4-phenyl-2,8-diazaspiro[4.5]decan-8-yl)-1-oxobutan-2-yl)benzamide] | 66.8 |
| CC(C)[C@@H](NC(=O)c1cccc(C(F)(F)F)c1)C(=O)N1CCC2(CC1)C(=O)N(C)CC2c1ccccc1 (stereo partly drawn) [Compound 108, N-((2R)-3-methyl-1-(2-methyl-1-oxo-4-phenyl-2,8-diazaspiro[4.5]decan-8-yl)-1-oxobutan-2-yl)-3-(trifluoromethyl)benzamide] | 16.4 |
| CC(C)[C@@H](NC(=O)c1cc(OC(F)(F)F)ccc1F)C(=O)N1CCC2(CC1)C(=O)N(C)CC2c1ccccc1 (stereo partly drawn) [Compound 110, 2-fluoro-N-((2R)-3-methyl-1-(2-methyl-1-oxo-4-phenyl-2,8-diazaspiro[4.5]decan-8-yl)-1-oxobutan-2-yl)-5-(trifluoromethoxy)benzamide] | 3.8 |
| CC(C)[C@@H](NC(=O)c1cc(C(F)(F)F)ccc1F)C(=O)N1CCC2(CC1)C(=O)N(C(C)C)CC2c1ccc(F)cc1 (stereo partly drawn) [Compound 111, 2-fluoro-N-((2R)-1-(4-(4-fluorophenyl)-2-isopropyl-1-oxo-2,8-diazaspiro[4.5]decan-8-yl)-3-methyl-1-oxobutan-2-yl)-5-(trifluoromethyl)benzamide] | 34.2 |
| CC(C)[C@@H](NC(=O)c1cc(C(F)(F)F)ccc1F)C(=O)N1CCC2(CC1)C(=O)N(CC1CC1)CC2c1ccc(F)cc1 (stereo partly drawn) [Compound 112, N-((2R)-1-(2-(cyclopropylmethyl)-4-(4-fluorophenyl)-1-oxo-2,8-diazaspiro[4.5]decan-8-yl)-3-methyl-1-oxobutan-2-yl)-2-fluoro-5-(trifluoromethyl)benzamide] | 73.4 |
| CC(C)[C@@H](NC(=O)c1cc(C(F)(F)F)ccc1F)C(=O)N1CCC2(CC1)C(=O)N(CC1CC1)CC2c1cccnc1 (stereo partly drawn) [Compound 113, N-((2R)-1-(2-(cyclopropylmethyl)-1-oxo-4-(pyridin-3-yl)-2,8-diazaspiro[4.5]decan-8-yl)-3-methyl-1-oxobutan-2-yl)-2-fluoro-5-(trifluoromethyl)benzamide] | 102 |
| COc1ccc(C2CN(C)C(=O)C23CCN(C(=O)[C@H](NC(=O)c2cc(C(F)(F)F)ccc2F)C(C)C)CC3)cc1 (stereo partly drawn) [Compound 114, 2-fluoro-N-((2R)-1-(4-(4-methoxyphenyl)-2-methyl-1-oxo-2,8-diazaspiro[4.5]decan-8-yl)-3-methyl-1-oxobutan-2-yl)-5-(trifluoromethyl)benzamide] | 1.7 |
| CC(C)[C@@H](NC(=O)c1cc(C(F)(F)F)ccc1F)C(=O)N1CCC2(CC1)OC(=O)NC2c1ccccc1 (stereo partly drawn) [Compound 115, 2-fluoro-N-((2R)-3-methyl-1-oxo-1-(2-oxo-4-phenyl-1-oxa-3,8-diazaspiro[4.5]decan-8-yl)butan-2-yl)-5-(trifluoromethyl)benzamide] | 74.4 |
| CC(C)[C@@H](NC(=O)c1cc(C(F)(F)F)ccc1F)C(=O)N1CCC2(CC1)CN(C)CC2c1ccc(F)cc1 (stereo partly drawn) [Compound 119, 2-fluoro-N-((2R)-1-(4-(4-fluorophenyl)-2-methyl-2,8-diazaspiro[4.5]decan-8-yl)-3-methyl-1-oxobutan-2-yl)-5-(trifluoromethyl)benzamide] | 7.1 |
| CC(C)[C@@H](NC(=O)c1cc(C(F)(F)F)ccc1F)C(=O)N1CCC2(CC1)CN(C(C)C)CC2c1ccc(F)cc1 (stereo partly drawn) [Compound 120, 2-fluoro-N-((2R)-1-(4-(4-fluorophenyl)-2-isopropyl-2,8-diazaspiro[4.5]decan-8-yl)-3-methyl-1-oxobutan-2-yl)-5-(trifluoromethyl)benzamide] | 44.4 |
| CC(C)[C@@H](NC(=O)c1cc(C(F)(F)F)ccc1F)C(=O)N1CCC2(CC1)CN(CC1CC1)CC2c1ccc(F)cc1 (stereo partly drawn) [Compound 121, N-((2R)-1-(2-(cyclopropylmethyl)-4-(4-fluorophenyl)-2,8-diazaspiro[4.5]decan-8-yl)-3-methyl-1-oxobutan-2-yl)-2-fluoro-5-(trifluoromethyl)benzamide] | 84.4 |
